Columns and labels:
Vero cells = settings: at concentration 12.50 μM
[1] = cited from earlier work
SARS-CoV-2 = assay type: cell-based, SARS-CoV-2 (βCoV/KOR/KCDC03/2020); settings: Severe acute respiratory syndrome coronavirus 2, Vero; for IC50: read-out: IC50 against SARS-CoV-2 infection

SMILES	IC50 (SARS-CoV-2) [µM]	other results
C=C(C)[C@@H]1CCC(C)=C[C@H]1c1c(O)cc(CCCCC)cc1O [CBD, Cannabidiol]	7.91	Vero cell survival ratio (Vero cells): 97.46%; safe dose ([1]; humans, concluded from literature dosing): up to 60 mg per day; safety of a single oral dose ([1]; single oral dose 100 mg, healthy volunteers): safe and tolerable; inhibition at 12.5 µM (SARS-CoV-2; read-out: inhibition of SARS-CoV-2 virus): 99.2%
C=C(C)[C@@H]1CCC(C)=C[C@H]1c1c(O)cc(CCCCC)c(C(=O)O)c1O [CBDA, Cannabidiolic acid]	37.6	–
CCCCCc1cc(O)c2c(c1)OC(C)(C)c1ccc(C)cc1-2 [CBN, Cannabinol]	11.1	–
CCN(CC)CCCC(C)Nc1ccnc2cc(Cl)ccc12 (centres unmarked) [chloroquine, reference compound]	9.78	–
Cc1cccc(C)c1OCC(=O)N[C@@H](Cc1ccccc1)[C@@H](O)C[C@H](Cc1ccccc1)NC(=O)[C@H](C(C)C)N1CCCNC1=O [lopinavir, reference compound]	13.2	–
CCC(CC)COC(=O)[C@H](C)N[P@](=O)(OC[C@H]1O[C@@](C#N)(c2ccc3c(N)ncnn23)[C@H](O)[C@@H]1O)Oc1ccccc1 [remdesivir, reference compound]	8.17	–
CCCCCc1cc(O)c2c(c1)OC(C)(C)[C@@H]1CCC(C)=C[C@@H]21 [Δ^9-THC, Δ^9-tetrahydrocannabinol]	10.2	–
